The results in this text go back to patent publication US10053422B2, “Compounds for the treatment of mTOR pathway related diseases” (Pitney Pharmaceuticals Pty Limited, priority 2012, dated 2018).

Like-named read-outs stand apart in the source and are kept apart here.

For series [1], the system named is T47-D cells. Put plainly: SRB cell proliferation assay, T47-D. The series is classed as cell-based. As to conditions: Homo sapiens, T47D. The method, then:
(§1) Cell proliferation was assessed using the sulforhodamine B (SRB) assay. Cells seeded in 96-well plate (2,000-3,000 cell/well) were treated with MPL (0, 1, 5, 10, 25, 50 and 100 μmol/L) for 72 h. Cells were then fixed, washed and stained with 100 μl of 0.4% (w/v) SRB dissolved in 1% acetic acid. Unbound dye was removed by five washes with 1% acetic acid before air drying. Bound SRB was solubilized with 100 μl of 10 mM Tris base (pH 10.5) and the absorbance read at 570 nm. Exactly the same procedure was used to assess MPL-SO2. Both agents were dissolved in ethanol and diluted with media to give the final concentrations required for cell culture assays.

Series [2] deals with nicotinic receptors. Put plainly: MPL antiproliferative effect after pre-treatment with nicotinic agonists or antagonists. The series is classed as cell-based. As to conditions: MPL 5 μM, 72 h; 30 min pre-treatment. As for the experimental part: Cells were pre-treated (30 min) with increasing concentrations of nicotine, carbachol or the receptor antagonists, atropine, mecamylamine, tubocurarine, and α-bungarotoxin. MPL (5 μM) was added and left in the cell culture incubator for 72 h. Each drug concentration was tested in quadruplicate and each experiment was repeated twice. Combine values (mean±SEM) are presented as % control.
In brief, MPL and MPL-SO2 were tested in vitro against a wide range of cancer cell-lines with extensively different disease characteristics. For further detailed studies, human ovarian cancer cell lines OVCAR-3 and A2780 were chosen. Additionally, normal human ovarian surface epithelial cells (HOSE) and were cultured in the presence of MPL (0, 5, 10, 25, 50 and 100 μM) for 72 h. Cell viability was assessed using Trypan blue assay (FIG. 9). Similarly, effect of MPL on the growth of normal epithelial, endothelial, embryonic and fetal cells were investigated (FIG. 10) while cell proliferation was assessed using the SRB assay (FIG. 11). Control (vehicle treated) cells were taken to present 100% proliferation and the MPL treated groups are expressed as percentage of control±SEM. Each drug concentration was tested in quadruplicate and each experiment was repeated at least twice. For statistical comparisons, each drug treated group is compared to the control group using Student's t test. […]

The test system of series [3] is cancer cell lines. Kind of series: SRB cell proliferation assay, range of cancer cell lines (general statements). In kind it is cell-based. As for the experimental part:
as §1
In brief, MPL and MPL-SO2 were tested in vitro against a wide range of cancer cell-lines with extensively different disease characteristics. For further detailed studies, human ovarian cancer cell lines OVCAR-3 and A2780 were chosen. Additionally, normal human ovarian surface epithelial cells (HOSE) and were cultured in the presence of MPL (0, 5, 10, 25, 50 and 100 μM) for 72 h. Cell viability was assessed using Trypan blue assay (FIG. 9). Similarly, effect of MPL on the growth of normal epithelial, endothelial, embryonic and fetal cells were investigated (FIG. 10) while cell proliferation was assessed using the SRB assay (FIG. 11). Control (vehicle treated) cells were taken to present 100% proliferation and the MPL treated groups are expressed as percentage of control±SEM. Each drug concentration was tested in quadruplicate and each experiment was repeated at least twice. For statistical comparisons, each drug treated group is compared to the control group using Student's t test. To examine concentration dependent drug effect, analysis of variance (ANOVA) was used. P values are: *=<0.05; **<0.01 and ***=<0.001, **** p<0.0001. […] In order to find out if the MPL effect is mediated through the nicotinic acetyl choline receptor and in particular the nACHR7 subtype, cells were pretreated with antagonists and then exposed to MPL (FIG. 12).

The test system of series [4] is NF-κB signal transduction pathway in LPS-stimulated RAW 264.7 cells. Kind of series: NF-κB signal transduction in LPS-stimulated macrophages. In kind it is cell-based. An excerpt:
LPS-stimulated RAW 264.7 cells macrophages were used as an in vitro model system for inflammation.

In series [5] the test system is OVCAR-3 or A2780 cells. Kind of series: Cellular ATP and ADP/ATP ratio. The series is classed as cell-based, human. As for the experimental part: ADP and ATP levels in the media were measured using the commercial colorimetric/fluorometric assay kits from Abcam together with the ApoGlow assay kit from Lonza (Sydney, Australia subsidary). Each value represents mean+s.e.m. of at least two determinations.

Series [6] relates to Normal cells HOSE, CHO, HEK and HUVEC. Put plainly: Cell viability assay (Trypan blue), normal cells. In kind it is cell-based. The conditions noted are these: MPL 0, 5, 10, 25 μmol/L, 72 h. As for the experimental part: Normal cells HOSE, CHO, HEK and HUVEC were cultured in the presence of MPL (0, 5, 10, 25, μmol/L) for 72 h. Effect of MPL on cell viability was assessed using the standard Trypan blue assay. Results are presented as mean±SEM compared to control (100%).
For viability experiments, cells seeded in 6 well plates were exposed to monepantel (MPL) at 0, 1, 10, 50 and 100 μM concentrations for 24, 48 or 72 h. Monepantel (gift by Novartis, Basel, Switzerland) was dissolved in 100% ethanol and then diluted with the cell culture media. At the end of treatment period, cells were washed with PBS, trypsinized and counted using Trypan blue and hemocytometer. All experimental points were set up in quadruplicate and each experiment was performed at least twice.
In brief, MPL and MPL-SO2 were tested in vitro against a wide range of cancer cell-lines with extensively different disease characteristics. For further detailed studies, human ovarian cancer cell lines OVCAR-3 and A2780 were chosen. […] Cell viability was assessed using Trypan blue assay (FIG. 9). Similarly, effect of MPL on the growth of normal epithelial, endothelial, embryonic and fetal cells were investigated (FIG. 10) while cell proliferation was assessed using the SRB assay (FIG. 11). Control (vehicle treated) cells were taken to present 100% proliferation and the MPL treated groups are expressed as percentage of control±SEM. […]

The test system of series [7] is SKOV-3 cells. Kind of series: SRB cell proliferation assay, SKOV-3. The series is classed as cell-based. As to conditions: Homo sapiens, SK-OV-3. The method, then: as §1
For series [8], the system named is mTOR signaling in s.c. grown OVCAR-3 tumors. Kind of series: Western blot of tumor lysates, mTOR related signaling. In kind it is in vivo, female nude mice. The method, then: Western blot analysis of tumor lysates prepared from s.c. grown OVCAR-3 tumors in female nude mice. Mice were treated from day 8 post cell inoculation i.p. for 3 weeks with MPL (25, 50 mg/kg suspended in 0.5% HPMC given i.p.) or the vehicle (0.5% HPMC). 24 hours after the last dose, tumors were excised and frozen at −80° C. […] Protein expression of mTOR together with c-Myc, cyclins D1 and E2 and CDKs 2 and 4 were suppressed in tumors excised from MPL treated mice.
Female nude mice (6 weeks old) were purchased from Biological Resources (Faculty of Medicine, University of New South Wales). An institutional animal ethics approval covered all procedures carried out on mice. Briefly, 2.5×10^6 log-phase growing OVCAR-3 cells were injected s.c. into the left flank of each mouse. Animals were weighed once weekly while their tumor volumes were determined twice weekly. Tumor growth was monitored by caliper measurements of orthogonal diameters, and the estimated tumor volume was calculated based on the formula ½ (Length×Width^2), where width is the shorter of the two orthogonal measurements. Based on institutional ethics approval, mice were euthanized before the tumor volume reached 500 mm^3. Treatment was initiated on day 8 after tumor cell injection when mice were randomized and assigned to treatment or the control group (6 per group). […]
In general terms: Immunoblotting shows a protein as a band on a membrane.

Series [9] relates to IGROV-1 cells. Put plainly: SRB cell proliferation assay, IGROV-1. As to conditions: Homo sapiens. In kind it is cell-based. The method, then: as §1

As for `C[C@](C#N)(COc1cc(C#N)ccc1C(F)(F)F)NC(=O)c1ccc(SC(F)(F)F)cc1` [MPL, N-[(1S)-1-Cyano-2-(5-cyano-2-trifluoromethyl-phenoxy)-1-methyl-ethyl]-4-trifluoromethylsulfanyl-benzamide], the IC50 in series [1] (breast cancer (Table 2), read-out: IC50 in suppressing proliferation) came out at 5.3 ± 0.003 µM; in series [1] (breast cancer, 72 h, SRB assay (Table 1), read-out: IC50) it was 5.7 µM; in [7] (SKOV-3, ovarian cancer (Table 2), read-out: IC50 in suppressing proliferation), 31.2 ± 0.76 µM; in series [7] (SKOV-3, ovarian cancer, 72 h, SRB assay (Table 1), read-out: IC50) it was 29.3 µM; in [9] (IGROV-1, ovarian cancer (Table 2), read-out: IC50 in suppressing proliferation), 4.4 ± 0.27 µM; in [9] (IGROV-1, ovarian cancer, 72 h, SRB assay (Table 1), read-out: IC50), 6.1 µM. Moreover, in series [2], the “MPL-induced inhibition after pre-treatment with nicotinic agonists or antagonists” value was “neither positively nor negatively affected”. Besides, the “antiproliferative action on chemo-resistant cell lines” value in series [3] (ovarian chemo-resistant, glioma temozolimide resistant, breast cancer tamoxifen resistant cells) was “sensitive”. The “antiproliferative activity, cancer cell lines versus normal cells” value in series [3] (results of Table 2) is reported as “high antiproliferative activity in cancer cell lines, whereas, normal cells are far less affected”. Also, the IKK phosphorylation result in series [4] is “inhibitory effect”. Further, in [4], the IL-6 expression entry is recorded as “down regulation of IL-6 expression”. The IκB-α phosphorylation entry in [4] was “inhibitory effect”. Also, the “NF-κB p65 phosphorylation” value in series [4] is listed as “inhibitory effect”. The NO expression entry in [4] is “abrogates NO expression”. The TGF-β expression result in series [4] was “down regulation of TGF-β expression”. For the same compound, the NF-κB activation result in series [4] (immunocytochemistry and Western blot) is listed as “decreased NF-κB activation”. Besides, the “cellular ATP levels” value in series [5] is “reduction in ATP levels”. Further, in series [6], the “viability of normal cells” value was “cancer cell orientated”. Moreover, the “tumor mTOR signaling (Western blot)” value in [8] (25, 50 mg/kg i.p. for 3 weeks, tumors excised 24 hours after last dose) is “suppression of mTOR signaling”. Further, the “tumor expression of cyclin D1” value in series [8] (MPL treated tumor bearing mice) is given as “dramatic down-regulation of cyclin D1”.
